Read-outs that look alike come from different tables or passages of the source.
Columns and labels:
[1] = Cytotoxicity: cell counts of mock-infected H9 cells; type: cell-based; conditions: human; toxic to 50% of mock-infected H9 cells; 4 days; average of at least two experiments; read-out: Cytotoxicity IC50
Procedure: (§1) The biological evaluation of HIV-1 inhibition was carried out according to established protocols, (Kashiwada, Y., et al., J Med Chem. 39:1016-1017 (1996); Hashimoto, F., et al., Bioorg. & Med Chem. 5:2133-2143 (1997)). The T cell line, H9, was maintained in continuous culture with complete medium (RPMI 1640 with 10% fetal calf serum supplemented with L-glutamine at 5% CO2 and 37° C.). Aliquot of this cell line were only used in experiments when in log-phase growth. Test samples were first dissolved in dimethyl sulfoxide. The following final drug concentrations were routinely used for screening: 100, 20, 4 and 0.8 μg/ml. For active agents, additional dilutions were prepared for subsequent testing so that an accurate EC50 value (defined below) could be achieved. As the test samples were being prepared, an aliquot of the H9 cell line was infected with HIV-1 (IIIB isolate) while another aliquot was mock-infected with complete medium. […] The appropriate amount of virus for a multiplicity of infection (moi) between 0.1 and 0.01 Infectious Units/cell was added to the first aliquot of H9 cells. The other aliquot only received culture medium, and these mock-infected cells were used for toxicity determinations (IC50, defined below). After a 4 h incubation at 37° C. and 5% CO2, both cell populations were washed three times with fresh medium and then added to the appropriate wells of a 24 well-plate containing the various concentrations of the test drug or culture medium (positive infected control/negative drug control). In addition, AZT was also assayed during each experiment as a positive drug control. The plates were incubated at 37° C. and 5% CO2 for 4 days. Cell-free supernatants were collected on Day 4 for use in a p24 antigen ELISA assay. P24 antigen is a core protein of HIV and therefore is an indirect measure of virus present in the supernatants. Toxicity was determined by performing cell counts by a Coulter Counter on the mock-infected H9 cells which had either received culture medium (no toxicity), test sample, or AZT.
Compounds of the present invention were assayed for anti-HIV activity according to the following assay procedures. The T cell line, H9, and the promonocytic cell line, U937, were maintained separately in continuous culture with complete medium (RPMI 1640 with 10% fetal calf serum) at 5% CO2 and 37° C. The cell lines were used in experiments only when in the logarithmic phase of growth, whereas uninfected peripheral blood mononuclear cells (PBMCs) were first stimulated with PHA (1 μg/mL) for three days. All cell targets were incubated with HIV-1 (IIIB isolate, TCID50 10^4 IU/ml, at a multiplicity of infection of […] IU/cell) for one hour at 37° C. and 5% CO2. The cell lines and PBMCs were washed thoroughly to remove unadsorbed virions and resuspended at 4×10^5 cells/ml in complete medium or complete medium with 10% v/v interleukin 2 (IL-2) , respectively. One ml. aliquots were placed into wells of 24-well culture plates containing an equal volume of test compounds (diluted in the appropriate culture medium). The toxicity of each compound was assessed by determining the number of compound-exposed uninfected cells that remained after four days at 37° C. and 5% CO2. A p24 antigen ELISA assay was used to determine the level of virus released in the medium of the HIV-infected cultures. The p24 antigen assay used a HIV-1 anti-p24 specific monoclonal antibody as the capture antibody coated onto 96-well plates. Following a sample incubation period, rabbit serum containing antibodies for HIV-1 p24 was used to tag any p24 captured onto the microtiterwell surface. Peroxidase conjugated goat anti-rabbit serum was then used to tag HIV-1 p24 specific rabbit antibodies that had complexed with captured p24. […] The cutoff for the p24 ELISA assay was 12.5 pg/ml. P24 in the culture medium was quantitated against a standard curve containing known amounts of p24. […]

[2] = tested on: HIV-1; conditions: H9 lymphocyte cells, Fujioka et al. 1994, cited from earlier work
[3] = tested on: HIV-1 (IIIB isolate); test: HIV-1 inhibition (p24 antigen ELISA) in infected H9 lymphocytes; type: cell-based; conditions: Human immunodeficiency virus 1, IIIB, Lymphocyte, 96 h; H9 lymphocytes; p24 ELISA Day 4; average of at least two experiments; read-out: Anti-HIV Activity EC50
Procedure: as §1, with “Aliquot” for “The biological evaluation of HIV-1 inhibition was carried out according to established protocols, (Kashiwada, Y., et al., J Med Chem. 39:1016-1017 (1996); Hashimoto, F., et al., Bioorg. & Med Chem. 5:2133-2143 (1997)). The T cell line, H9, was maintained in continuous culture with complete medium (RPMI 1640 with 10% fetal calf serum supplemented with L-glutamine at 5% CO2 and 37° C.). Aliquot”, “achieved.” for “achieved. As the test samples were being prepared, an aliquot of the H9 cell line was infected with HIV-1 (IIIB isolate) while another aliquot was mock-infected with complete medium.”
Compounds of the present invention were assayed for anti-HIV activity according to the following assay procedures. […] The cell lines were used in experiments only when in the logarithmic phase of growth, whereas uninfected peripheral blood mononuclear cells (PBMCs) were first stimulated with PHA (1 μg/mL) for three days. […] The cell lines and PBMCs were washed thoroughly to remove unadsorbed virions and resuspended at 4×10^5 cells/ml in complete medium or complete medium with 10% v/v interleukin 2 (IL-2) , respectively. One ml. aliquots were placed into wells of 24-well culture plates containing an equal volume of test compounds (diluted in the appropriate culture medium). The toxicity of each compound was assessed by determining the number of compound-exposed uninfected cells that remained after four days at 37° C. and 5% CO2. A p24 antigen ELISA assay was used to determine the level of virus released in the medium of the HIV-infected cultures. The p24 antigen assay used a HIV-1 anti-p24 specific monoclonal antibody as the capture antibody coated onto 96-well plates. […] P24 in the culture medium was quantitated against a standard curve containing known amounts of p24. The effective (EC50) and inhibitory (IC50) concentrations for anti-HIV activity and cytotoxicity, respectively, were determined.

[4] = read-out: EC50, inhibitory activity against HIV-1 replication

Compound: C=C(C)[C@@H]1CC[C@]2(C(=O)O)CC[C@]3(C)[C@H](CC[C@@H]4[C@@]5(C)CC[C@H](O)C(C)(C)[C@@H]5CC[C@]43C)[C@@H]12 [Compound 1, betulinic acid, reference compound]
- CC50 at 96 h [1]: 13000 nM
- EC50 [2, 4]: 1400 nM
- EC50 [3]: 1400 nM

Compound: CC(=O)[C@@H]1CC[C@]2(C(=O)O)CC[C@]3(C)[C@H](CC[C@@H]4[C@@]5(C)CC[C@H](O)C(C)(C)[C@@H]5CC[C@]43C)[C@@H]12 [platanic acid]
- T.I. [2]: 14
- EC50 [2, 4]: 6500 nM

Compound: CC(C)[C@@H]1CC[C@]2(C(=O)O)CC[C@]3(C)[C@H](CC[C@@H]4[C@@]5(C)CC[C@H](O)C(C)(C)[C@@H]5CC[C@]43C)[C@@H]12 [dihydrobetulinic acid]
- T.I. [2]: 14
- EC50 ([2]; read-out: EC50, anti-HIV activity (unit inferred)): 900 nM

Source: patent publication US6172110A, “Acylated betulin and dihydrobetulin derivatives, preparation thereof and use thereof” (The University of North Carolina at Chapel Hill, priority 1999, dated 2001)
